Assay results from US20160038485A1, “PHASE 2 INDUCERS AND RELATED SIGNALING PATHWAYS PROTECT CARTILAGE AGAINST INFLAMMATION, APOPTOSIS AND STRESS” (THE JOHNS HOPKINS UNIVERSITY, priority 2006, published 2016).

Assays:
Assay type in all cases: cell-based, human
[1] = test system: T/C28a2 chondrocytic cells; experiment: DNA microarray analysis of shear-induced mRNA response of chondrocytes; parameters: COX-1 (cyclooxygenase-1) microarray intensity ratio (shear/static): dose or concentration left out as unconfirmed; settings: 20 dyn/cm2, 48 hr, mean ± SD
Description: (§1) Cell Culture and Shear Stress Exposure: Human T/C28a2 chondrocytic cells were grown (37° C., 5% CO2) in 1:1 Ham's F-12/DMEM (Biowhittaker) supplemented with 10% FBS. Prior to shear exposure, T/C28a2 cells were incubated for 24 hours in serum-free medium containing 1% Nutridoma-SP (Roche), a low-protein serum replacement that maintains chondrocyte phenotype. Primary HUVECs were cultured as described (Goldring, M. B., 2004). T/C28a2 cells were exposed to shear stress in media containing 1% Nutridoma by use of a parallel-plate flow chamber with a recirculating flow loop (37° C., 5% CO2) (10). HUVECs were treated similarly by circulating media supplemented with 10% FBS.
Microarray Hybridization and Analysis: Cy-3- and Cy-5-labeled probes were mixed, dried, resuspended in hybridization buffer (50% formamide, 10×SSC, 0.2% SDS, COT-I DNA, Poly(A)-DNA), and denatured. The probes were added to microarray slides printed with a set of 32,448 or 39,936 expressed sequence tags (ESTs), allowed to hybridize at 42° C. overnight, and processed as described (Abulencia, J. P., et al. 2003. Hegde, P. et al. 2000). Expression ratios were derived using TIGR Spotfinder (Abulencia, J. P. et al. 2003, Hegde, P. et al. 2000). Differentially expressed genes were identified by Significance Analysis of Microarrays, and analyzed with the software TMEV (Abulencia, J. P. et al. 2003).
Quantitative Real-Time PCR (qRT-PCR) was used to verify DNA microarray data. Incorporation of SYBR Green into PCR products was monitored with the 7900HT detection system.

NQO1 = NQO1 enzyme activity in shear-activated chondrocytes; settings: T/C28a2, high shear (20 dyn/cm^2); SFN 1.25 μM, D3T 5 μM, CAY10404 6.75 μM, NS398 30 μM
Description: as §1
(§2) Cell Viability, NQO1 activity, Glutathione levels, and Prostaglandin (PG)E2 production: Cell viability was monitored with the MTT assay (Gao, X. et al. 2001). NQO1 activity and total GSH (oxidized and reduced) levels of cell lysates were determined in 96-well microtiter plates. PGE2 levels were determined in media by the Prostaglandin E2 monoclonal EIA kit (Cayman Chemical).

T/C28a2 cells [2] = experiment: Shear-induced apoptosis: DNA fragmentation (TUNEL) and mitochondrial membrane depolarization; settings: 20 dyn/cm^2, 48 h; D3T 5 μM, CAY10404 6.75 μM, NS398 30 μM
Description: as §1
DNA Fragmentation and Mitochondrial Depolarization: For DNA fragmentation, cells were fixed in 4% paraformaldehyde for 1 hour at 25° C., washed 2× in PBS, and permeabilized briefly in 0.1% Triton-X100/0.1% sodium citrate on ice. Subsequently, cells were washed 2× in PBS, labeled using the In Situ Cell Death Kit (Roche), and analyzed by flow cytometry. To quantify Mitochondrial Membrane Potential (MMP), cells were labeled using the MitoProbe JC-I Kit (Molecular Probes).

caspase-9 = experiment: Caspase-9 immunoblot analysis; settings: high shear 20 dyn/cm^2
Description: as §1
(§3) Intracellular Protein Staining and Western Blots: T/C28a2 cells were fixed in 1.0% formaldehyde for 10 min at 37° C., permeabilized in 90% methanol for 20 minutes on ice, and incubated at 25° C. for 10 min in blocking buffer (0.5% BSA). Specimens were then incubated with fluorophore-conjugated monoclonal antibodies specific for COX-I (COX-1/FITC) and COX-2 (COX-2/PE) (Cayman Chemical) or isotype controls (BD Biosciences) for 30 min, washed 2× in blocking buffer, and analyzed by flow cytometry. For Western blots, total cell lysates were subjected to SDS/PAGE, transferred to a membrane, and probed with caspase-9 and β-actin antibodies (Upstate).

COX-I = experiment: Intracellular COX-1 protein staining, flow cytometry; settings: D3T 5 μM; static or laminar shear 5 or 20 dyn/cm^2, 48 hours
Description: as §1, §3

T/C28a2 cells [3] = experiment: Shear-induced PGE2 production (EIA of culture media); settings: D3T 5 μM; fluid shear 48 hours
Description: as §1, §2

ARE-driven NQO1 promoter = experiment: Promoter activity assay (pNQO1/ARE-luc); settings: transfected T/C28a2 cells; SFN 1.25 μM or D3T 5 μM, 24 h, static conditions
Description: Transient Transfection and Plasmid Constructs: T/C28a2 cells were transfected with 10 μg of plasmid and 2 μg of control with Lipofectamine and Plus Reagent (Invitrogen). Cells were allowed to recover for 3 hours, incubated overnight in medium containing 1% Nutridoma, and exposed to the indicated treatments. Efficiency was assessed by flow cytometry with pEGFP-N2 (BD Biosciences). pCMV-mNrf2 and pNQO1/ARE-luc constructs were provided by N. Wakabayashi (Wakabayashi, N. et al. 2004). Igarashi, K., et al. 1994), and pBJ M-pl 10*-myc, pBJ M<<pl 10-UR, and pCG pi 10 wt constructs were provided by A. Kippel (Hu, Q., et al. 1995).
Promoter Activity Assay: T/C28a2 cells were transfected with 10 μg of pNQO1/ARE-luc and 1 μg each of pEGFP-N2 and pSV40-hRL2 (Promega) to normalize transfection efficiency. Firefly and Renilla luciferase activities were measured using the Dual-Luciferase Report Assay kit (Promega).

COX-2 = experiment: Intracellular COX-2 protein staining, flow cytometry; settings: D3T 5 μM; 20 dyn/cm^2, 48 hours
Description: as §1, §3

[4] = 5 μM D3T (shear) vs 0.1% DMSO (static)

expression of proform (46 kDa) and active form (34 kDa) of caspase-9 (caspase-9): substantially reduced expression
ARE-driven NQO1 promoter luciferase activity (ARE-driven NQO1 promoter): increases the luciferase activity
Structure (SMILES): S=c1ccss1 [D3T, 1,2-dithiole-3-thione]
COX-2 (cyclooxygenase-2) microarray intensity ratio (shear/static) [1, 4]: 1.3 ± 0.2
Caspase-9 precursor microarray intensity ratio (shear/static) [1, 4]: 0.8 ± 0.1
GCLR (γ-glutamylcysteine ligase) microarray intensity ratio (shear/static) [1, 4]: 1.6 ± 0.1
GST μ1 (glutathione S-transferase) microarray intensity ratio (shear/static) [1, 4]: 1.6 ± 0.1
Glutathione reductase microarray intensity ratio (shear/static) [1, 4]: 2.8 ± 0.1
HO-1 (Heme Oxygenase-1) microarray intensity ratio (shear/static) [1, 4]: 1.2 ± 0.1
HO-2 (Heme Oxygenase-2) microarray intensity ratio (shear/static) [1, 4]: 0.9 ± 0.1
JNK2 (c-jun N-terminal kinase 2) microarray intensity ratio (shear/static) [1, 4]: 1.6 ± 0.1
NQO1 (NAD(P)H:quinone reductase-1) microarray intensity ratio (shear/static) [1, 4]: 1.3 ± 0.1
Nrf2 (NF-E2 related factor 2) microarray intensity ratio (shear/static) [1, 4]: 1.3 ± 0.1
PI3K (phosphoinositol kinase 3) microarray intensity ratio (shear/static) [1, 4]: 0.8 ± 0.2
Transcription Factor AP-1 (c-jun) microarray intensity ratio (shear/static) [1, 4]: 1.4 ± 0.1
UDP-glucuronosyltransferase microarray intensity ratio (shear/static) [1, 4]: 1.0 ± 0.1
COX-1 (cyclooxygenase-1) microarray intensity ratio (shear/static) [1]: 1.3 ± 0.1
shear-induced suppression of NQO1 activity (NQO1): likewise effective in suppressing the shear-mediated reduction of phase 2 enzyme activity
shear-induced apoptosis (DNA fragmentation TUNEL, mitochondrial membrane depolarization MMP) (T/C28a2 cells [2]): essentially abrogated
COX-I expression (COX-I): remains unchanged
PGE2 production in chondrocytes subjected to high shear (T/C28a2 cells [3]): nearly abrogated
COX-2 protein expression in chondrocytes subjected to high shear (COX-2): nearly abrogated
